Source: patent US8614209B2, “Amido-thiophene compounds and their use” (The University of Edinburgh, priority 2008, dated 2013)
pIC50: −log10 of the molar value.

These compounds were tested against T1, human 11β-HSD2 (Homo sapiens, UniProt P80365) (assay: Cellular in vitro 11β-HSD2 enzyme inhibition assay (CHO cells, TLC/phosphoimager)). Details: CHO cells stably transfected with human 11β-HSD2; Table 1.
T1 construct: CHO cells stably transfected with the full-length gene coding for human 11β-HSD2 were used; expressed in transfected cells; host or cells: CHO
T1 sequence (P80365 1-405): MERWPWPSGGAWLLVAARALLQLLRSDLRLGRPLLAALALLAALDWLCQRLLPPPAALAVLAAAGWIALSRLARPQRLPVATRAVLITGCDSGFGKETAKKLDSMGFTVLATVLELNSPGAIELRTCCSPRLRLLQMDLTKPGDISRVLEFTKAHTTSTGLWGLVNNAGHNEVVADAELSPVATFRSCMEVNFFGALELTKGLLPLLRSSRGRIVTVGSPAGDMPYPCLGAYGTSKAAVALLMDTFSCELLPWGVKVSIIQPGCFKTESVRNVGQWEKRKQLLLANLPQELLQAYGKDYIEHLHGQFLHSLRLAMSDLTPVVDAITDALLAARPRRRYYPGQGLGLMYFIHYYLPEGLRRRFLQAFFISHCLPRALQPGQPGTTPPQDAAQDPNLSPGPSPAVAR
Assay type: cell-based
Procedure: Cellular In Vitro 11β-HSD2 Enzyme Inhibition Assay
For measurement of inhibition of 11β-HSD2, CHO cells stably transfected with the full-length gene coding for human 11β-HSD2 were used. Assays were carried out in 96-well microplates containing 1×10^5 cells/well. Controls and compounds were plated as above, so that the final DMSO concentration in each well was 1%.
The assay solutions were transferred to glass tubes and 20 μL ethyl acetate added to each tube. Each tube was vortexed thoroughly and the upper layer containing the tritiated steroid transferred to a fresh glass tube. The solvent was evaporated by placing the tubes in a heating block at 65° C. under a stream of Nitrogen gas. 20 μL ethanol was added to each of the dried samples and vortexed briefly. Each sample was applied to a silica TLC plate and the plate dried. The plate was placed vertically in a glass tank containing 92% chloroform:8% ethanol and the solvent allowed to rise up the plate. The plate was dried, placed in an imaging cassette, and overlayed with a tritium imaging plate for 1-2 days. The amount of enzyme inhibition in each sample was determined by measuring the intensity of the substrate and product spots using a phosphoimager.
IC50 values for inhibitors were determined as described for 118-HSD1.

| pIC50 | SMILES |
| --- | --- |
| < 5.00 | O=C(c1csc(-n2ccnc2)c1)N1CCCC2CCCCC21 (centres unmarked) [FF-06, (5-Imidazol-1-yl-thiophen-3-yl)-(octahydro-quinolin-1-yl)-methanone] |
| < 5.00 | O=C(c1cc(-c2ccccc2)sc1Cl)N1CCCCC1 [AA-30] |
| < 5.00 | CC1(C)CC2CC(C)(CN2C(=O)c2cc(-c3ccccc3)sc2Cl)C1 (centres unmarked) [CC-02] |

The remaining lines, values behind:

| SMILES | pIC50 |
| --- | --- |
| CC1(C)CC2CC(C)(CN2C(=O)c2csc(-c3ccncc3)c2)C1 (centres unmarked) [GG-01] | < 5.00 |
| O=C(c1cc(-c2ccccn2)sc1Cl)N1CCCCCC1 [EE-12] | < 5.00 |
